Data from patent publication US9220714B2, “Nitrofuran compounds for the treatment of cancer and angiogenesis” (WOMEN AND INFANTS HOSPITAL OF RHODE ISLAND, priority 2006, dated 2015).
Values after ≈ are worked out from the molar mass of the structure shown. Where two headings read alike, the source gives them in different places.

Legend:
[1] = test system: Human Endothelial Cells (HEC); experiment: cells; conditions: Endothelial cell, read-out: inhibition of DNA synthesis in HEC
Procedure: (§1) Cells were labeled with 10 μM BrdU for 6 hours. The cells were fixed and the color was developed using peroxidase conjugated anti-BrdU antibody and TMB (3,3′,5,5′-tetramethylbenzidine) chromogenic substrate. Absorbance was measured at 450 nm using a microplate reader (Multiskan RC, Fisher Scientific, Pittsburgh, Pa.). In this assay, the color intensity correlates directly to the amount of BrdU incorporation which in turn reflects proliferation.
Human Endothelial Cells (HEC) (1×10^4 cells) were cultured in 96 well plates, serum deprived for 16 hours and treated with […], 1.25, 2.5, 5, 10 and 20 μg/ml in Medium 200 in the presence or absence of 50 ng/ml VEGF for 72 hours. BrdU (10 μM final concentration) was added to the cells and re-incubated for further 6 hours. The cells were fixed and the color was developed using anti-BrdU-POD antibody and TMB chromogenic substrate. The assay was performed according to the manufacturer's instructions. In this colorimetric cell proliferation assay, the color intensity correlates directly to the amount of BrdU incorporated into the DNA which in turn represents proliferation. The results are expressed as percentage BrdU incorporation.

[2] = study of 67 children using nifurtimox for Chagas disease; cited from earlier work
[3] = test system: SMS-KCNR cells; experiment: cells; conditions: Homo sapiens
Procedure: (§2) Cell viability was assessed using the MTS assay as described in Materials and Methods and expressed as percent of vehicle treated control. The data represents the mean SSD of four replicates.
SMS-KCNR cells were pretreated with pancaspase inhibitor, Z-VAD-FMK. […] Cell viability was measured by MTS assay. The reversal of cytotoxicity by pancaspase inhibitor was determined by comparing the viability of riifurtimox treated cells in the presence or absence of the pancaspase inhibitor. The values are the Mean±SD of quadruplicates.
(§3) The human neuroblastoma cell lines IMR-32 (ATCC), SMS-KCN, SMS-KCNR (from John Maris, CHOP, Philadelphia, Pa.) were maintained in RPMI 1640 media supplemented with 10% fetal bovine serum, 100 units/ml penicillin and 100 μg/ml streptomycin at 37° C. in a humidified incubator. Cells were grown in 6 well plates or 100 mm dishes to 75% confluency and serum deprived (RPMI 1640 with 0.1% BSA) overnight before treatment.
(§4) Cell viability was measured using the CellTiter 96 AQ One Solution Cell Proliferation Assay kit (Promega, Madison Wis.)^4. […] Vehicle treated cells were used as control (0.001% DMSO). At the end of the incubation period, MTS reagent (3-(4,5-dimethylthiazol-2-yl)-5-(3-carboxymethoxyphenyl)-2-(4-sulfophenyl)-2H-tetrazolium)^12 was added to each well in fresh media to a final concentration of 0.5 mg/ml and incubated for 4 hours. Absorbance was measured at 490 nm using a microplate reader (Multiskan RC, Fisher Scientific Pittsburgh, Pa.). Cell viability is represented as the mean percentage+/−SD of absorbance before and after treatment.
Inactivation of caspases results in inhibition of caspase mediated apoptosis. […] The cell viability was measured by MTS assay.

[4] = test system: rat aortic rings; conditions: with growth factors, day 9
Source text: (A) Vehicle treated aorta without growth factor (B) Vehicle treated aorta with growth factor.
Matrigel bed mimics physiological extracellular matrix representing its natural composition and architecture. Due to these features, Matrigel enables several cell types, including endo-thelial cells, to maintain in culture their in vivo phenotype and 3-dimensional organization. Aortic arches were removed from euthanized rats and immediately transferred to a culture dish containing ice-cold serum-free media. The peri-aortic fibroadipose tissue was carefully removed with fine microdissection forceps and iridectomy scissors paying special attention not to damage the aortic wall. Aortic rings (1 mm thick) were sectioned and extensively rinsed in 5 consecutive washes of Medium 200. […] The explants were examined every second day with a Nikon Eclipse TS100 inverted microscope at an appropriate magnification and photographed at the end of 9th day. On the ninth day, the capillary sprouting were quantified by grading and recording the extent of sprouting directly reflecting angiogenesis using Nikon Eclipse TS100 fluorescent microscope (Japan) and Fuji digital camera.

[5] = test system: normal epithelial cells; conditions: normal epithelial cells in culture; cited from earlier work
[6] = test system: SMS-KCNR cells; experiment: cells; conditions: Homo sapiens, read-out: concentration giving 50% inhibition in DNA synthesis (BrdU incorporation)
Procedure: as §1

[7] = test system: SMS-KCNR cells; conditions: 0-20 μg/ml, after 72 hours of treatment
[8] = test system: neuroblastoma; conditions: for tumor marker VMA: initial VMA 22
Source text: Chagas disease is a parasitic disease caused by Trypanasoma cruzi endemic to South America.

[9] = test system: SMS-KCNR cells; conditions: 150 mg/kg/day in food pellets, 30 days, nude mice
[10] = test system: caspase-3; conditions: 1, 10 and 20 μg/ml, 24 hours
Procedure: as §3

[11] = test system: Akt; conditions: SMS-KCNR
Procedure: as §3

[12] = test system: HEC; experiment: cells; conditions: Homo sapiens, 8 h, read-out: inhibition of tube formation
Procedure: Stimulation with growth factors leads to morphological differentiation of endothelial cells and formation of tube like structures on matrices. The endothelial tube formation assay was performed in Matrigel bed. Briefly, Matrigel bed was prepared by using pre-cooled pipettes, plates and tubes on ice. Growth factor-reduced Matrigel was thawed overnight at 4° C. and mixed to homogeneity, Culture plates (48-well) were coated with 0.1 ml of Matrigel and allowed to gelatinize at 37° C. for 30 minutes. […] Capillary networks were photographed using a phase-contrast microscope (Nikon Eclipse TS 100, fitted with Fuji digital camera, Japan), and the number of tubes was quantified by counting the branching points from four quadrants of each well.

[13] = test system: IMR-32 cells; experiment: cells; conditions: Homo sapiens
Procedure: as §2, §3, §4

[14] = test system: SMS-KCN cells; experiment: cells; conditions: Homo sapiens
Procedure: as §2, §3, §4

[15] = test system: neuroblastoma cell lines
[16] = test system: SMS-KCNR cells; conditions: 96 hours
Procedure: Vehicle treated cells were used as control.
Vehicle treated cells were used as control. […] The cells were washed with PBS, fixed with paraformaldehyde, permeabilized with Triton X-100 at room temperature, labeled with fluorescein-12-dUTP using terminal deoxynucleotidyl transferase and counterstained with propidium iodide (5 μg/ml). Negative controls (without terminal transferase) were included in each experiment. Apoptosis was detected by fluorescence microscopy (Nikon Eclipse TE2000-E fitted with a cooled CCD camera, Japan). Propidium iodide staining was used to detect both non-apoptotic and apoptotic cells and fluorescein staining was used to detect the apoptotic cells.

[17] = test system: ERK1/2; conditions: SMS-KCNR, data not shown
[18] = test system: sympathetic neurons; conditions: not seen in parasympathetic neurons or non-neuronal cells
[19] = 120 h, read-out: cell viability
[20] = read-out: IC50, concentration required to reach 50% inhibition of growth

Work on `CC1CS(=O)(=O)CCN1/N=C/c1ccc([N+](=O)[O-])o1` (stereo not drawn) [Nifurtimox] yielded an inhibition at 5 µg/mL [1] of 30%, an inhibition at 10 µg/mL [1] of 50% and an inhibition at 20 µg/mL [1] of over 80%. The “tolerability in children versus adults” value [2] was “much better tolerated in children”, the cytotoxicity at 10 µg/mL ([3]; 96 h, read-out: decrease of cell viability compared to vehicle treated control) was 50% and the viability at 20 µg/mL [3, 19] was 37%. The IC50 [3, 20] was 14.7 µg/mL (≈ 51.2 µM), the viability at 10 µg/mL ([3]; read-out: cell viability with Z-VAD-FMK pretreatment) was 90% and the “micro-vascular sprouting of aortic rings” value ([4]; 20 μg/ml) was “complete inhibition of micro-vascular sprouting”. The “capillary network of aortic rings” value ([4]; 1 and 10 μg/ml) was “sparse and incomplete”, the “cytotoxic effects on normal epithelial cells” value [5] was “not observed” and the IC50 [6] was 18.1 µg/mL (≈ 63 µM). For the same molecule, the “apoptosis (TUNEL positive nuclei)” value [7] was “dose dependent increase in apoptosis”, the tumor response ([8]; Patient A, after four months, with cyclophosphamide and topotecan) was “significant and continuous tumor regression” and the tumor response ([8]; Patient A, after two weeks, Nifurtimox alone) was “tumor stabilization”. For the same molecule, the tumor markers ([8]; Patient B, after two months, with ascorbic acid, cyclophosphamide and topotecan) was “normalization of tumor markers”, the “tumor marker VMA” value ([8]; Patient C, Day 21, before ascorbic acid) was 17 and the “bone marrow tumor status” value ([8]; Patient C, Day 21, initially positive for tumor) was “negative”. The “tumor marker VMA” value ([8]; Patient C, after 3 cycles of treatment) was 13, the tumor response ([8]; patient with Chagas disease, 15-20 mg/kg/day oral, with cyclophosphamide and topotecan) was “tumor subsequently regressed” and the “tumor response after relapse” value ([8]; same patient restarted on nifurtimox, cyclophosphamide and topotecan) was “again demonstrated tumor regression”. For the same molecule, the tumor response ([8]; three patients with relapsed neuroblastoma, 20 mg/kg/day, alone or in combination) was “tumor regression”, the “decrease in tumor size versus untreated” value [9] was “greater than three fold decrease” and the tumor size [9] was 0.3 grams. For the same molecule, the “activation of caspase-3 (19 and 17 kDa bands)” value [10] was “dose dependent and strong activation”, the “serum stimulated Akt phosphorylation” value ([11]; 1.0 and 10 μg/ml, in the presence of serum) was “completely inhibited” and the “BDNF stimulated Akt phosphorylation” value ([11]; 10 and 20 μg/ml, BDNF stimulation) was “significantly inhibited”. For the same molecule, the “total Akt protein levels” value ([11]; BDNF stimulation) was “not altered”, the inhibition at 20 µg/mL [12] was 50% and the viability at 20 µg/mL ([13]; IMR-32, 120 h, read-out: cell viability) was 78%. For the same molecule, the IC50 ([13]; IMR-32, read-out: IC50, concentration required to reach 50% inhibition of growth) was 52.9 µg/mL (≈ 184 µM), the viability at 20 µg/mL [14, 19] was 59% and the IC50 [14, 20] was 25.4 µg/mL (≈ 88.4 µM). For the same molecule, the “cytotoxicity after pretreatment with AMPT (tyrosine hydroxylase inhibitor)” value [15] was “reduction of cytotoxicity”, the morphological alterations ([16]; 1 μg/ml) was “decrease in axon length was apparent” and the morphological alterations ([16]; 10 μg/ml) was “the decrease in axon length was more prominent and was associated with rounding of cells”. For the same molecule, the morphological alterations ([16]; 20 μg/ml) was “rounded up and floating”, the “phosphorylation of ERK1/2” value [17] was “not affected” and the “sensitivity of sympathetic neurons to nifurtimox” value [18] was “enhanced sensitivity”.
